The values below come from PubChem BioAssay AID1259407 (Chemical Carcinogenesis Research Information System (CCRIS), 2018).

Active and inactive are the calls of the source. No rule for the calls is given here.

In the series the test system is CCRIS mutagenicity, Ames/micronucleus/aberration tests. Briefly: CCRIS mutagenicity studies.
Where [1] appears, read: Test System: AMES SALMONELLA TYPHIMURIUM, Strain/Indicator: TA98, Metabolic Activation: NONE, Method: PREINCUBATION
Setting [2] is: Test System: AMES SALMONELLA TYPHIMURIUM, Strain/Indicator: TA100, Metabolic Activation: NONE, Method: PREINCUBATION
The mark [3] stands for this setting: Test System: AMES SALMONELLA TYPHIMURIUM, Strain/Indicator: TA1535, Metabolic Activation: NONE, Method: PREINCUBATION
[4] abbreviates: Test System: AMES SALMONELLA TYPHIMURIUM, Strain/Indicator: TA1537, Metabolic Activation: NONE, Method: PREINCUBATION

Consider `NCCNCCNCCNCCN`, for which the mutagenic call under setting [1] is “active; positive”; the mutagenic call (Test System: AMES SALMONELLA TYPHIMURIUM, Strain/Indicator: TA98, Metabolic Activation: NONE, Method: STANDARD PLATE) was “inactive; negative”; the mutagenic call (Test System: AMES SALMONELLA TYPHIMURIUM, Strain/Indicator: TA98, Metabolic Activation: RAT, LIVER, S-9, AROCLOR 1254, Method: STANDARD PLATE) was “inactive; negative”; the mutagenic call (Test System: AMES SALMONELLA TYPHIMURIUM, Strain/Indicator: TA98, Metabolic Activation: RAT, LIVER, S-9, PCB, Method: PREINCUBATION) is “inactive; negative”; the mutagenic call (Test System: AMES SALMONELLA TYPHIMURIUM, Strain/Indicator: TA100, Metabolic Activation: HAMSTER, LIVER, S-9, AROCLOR 1254 (10%), Method: PREINCUBATION) was “active; positive”; the mutagenic call under setting [2] was “active; positive”. For the same compound, the mutagenic call reads like this: (Test System: AMES SALMONELLA TYPHIMURIUM, Strain/Indicator: TA100, Metabolic Activation: NONE, Method: STANDARD PLATE) “inactive; negative”; (Test System: AMES SALMONELLA TYPHIMURIUM, Strain/Indicator: TA100, Metabolic Activation: RAT, LIVER, S-9, AROCLOR 1254 (10%), Method: PREINCUBATION) “active; positive”; (Test System: AMES SALMONELLA TYPHIMURIUM, Strain/Indicator: TA100, Metabolic Activation: RAT, LIVER, S-9, AROCLOR 1254, Method: STANDARD PLATE) “inactive; negative”; (Test System: AMES SALMONELLA TYPHIMURIUM, Strain/Indicator: TA100, Metabolic Activation: RAT, LIVER, S-9, PCB, Method: PREINCUBATION) “inactive; negative”; under setting [3], “inactive; negative”; (Test System: AMES SALMONELLA TYPHIMURIUM, Strain/Indicator: TA1535, Metabolic Activation: NONE, Method: STANDARD PLATE) “inactive; negative”. Moreover, the mutagenic call is, setting by setting: (Test System: AMES SALMONELLA TYPHIMURIUM, Strain/Indicator: TA1535, Metabolic Activation: RAT, LIVER, S-9, AROCLOR 1254, Method: STANDARD PLATE) “inactive; negative”; (Test System: AMES SALMONELLA TYPHIMURIUM, Strain/Indicator: TA1537, Metabolic Activation: HAMSTER, LIVER, S-9, AROCLOR 1254 (10%), Method: PREINCUBATION) “inactive; negative”; under setting [4], “inactive; negative”; (Test System: AMES SALMONELLA TYPHIMURIUM, Strain/Indicator: TA1537, Metabolic Activation: NONE, Method: STANDARD PLATE) “inactive; negative”; (Test System: AMES SALMONELLA TYPHIMURIUM, Strain/Indicator: TA1537, Metabolic Activation: RAT, LIVER, S-9, AROCLOR 1254 (10%), Method: PREINCUBATION) “inactive; negative”; (Test System: AMES SALMONELLA TYPHIMURIUM, Strain/Indicator: TA1537, Metabolic Activation: RAT, LIVER, S-9, AROCLOR 1254, Method: STANDARD PLATE) “inactive; negative”. For the same compound, the mutagenic call runs as follows: (Test System: AMES SALMONELLA TYPHIMURIUM, Strain/Indicator: TA1538, Metabolic Activation: NONE, Method: STANDARD PLATE) “inactive; negative”; (Test System: AMES SALMONELLA TYPHIMURIUM, Strain/Indicator: TA1538, Metabolic Activation: RAT, LIVER, S-9, AROCLOR 1254, Method: STANDARD PLATE) “inactive; negative”; (Test System: CHINESE HAMSTER OVARY, Strain/Indicator: CHO (HGPRT)/6-THIOGUANINE, Metabolic Activation: NONE) “inactive; negative”; (Test System: CHINESE HAMSTER OVARY, Strain/Indicator: CHO (HGPRT)/6-THIOGUANINE, Metabolic Activation: RAT, LIVER, S-9, AROCLOR 1254) “inactive; negative”; (Test System: UDS RAT HEPATOCYTES, Strain/Indicator: THY INCORP, Metabolic Activation: NONE, Method: SCINTILLATION SPECTROMETRY) “active; positive”.

`C[As+](C)(C)CC(=O)[O-]`: the mutagenic call was “inactive; negative” (Test System: AMES SALMONELLA TYPHIMURIUM, Strain/Indicator: TA97, Metabolic Activation: NONE); “inactive; negative” (Test System: AMES SALMONELLA TYPHIMURIUM, Strain/Indicator: TA97, Metabolic Activation: RAT, GUT-FLORA EXTRACT); “inactive; negative” (Test System: AMES SALMONELLA TYPHIMURIUM, Strain/Indicator: TA97, Metabolic Activation: RAT, LIVER, S-9, AROCLOR 1254); “inactive; negative” (Test System: AMES SALMONELLA TYPHIMURIUM, Strain/Indicator: TA98, Metabolic Activation: NONE); “inactive; negative” (Test System: AMES SALMONELLA TYPHIMURIUM, Strain/Indicator: TA98, Metabolic Activation: RAT, GUT-FLORA EXTRACT); “inactive; negative” (Test System: AMES SALMONELLA TYPHIMURIUM, Strain/Indicator: TA98, Metabolic Activation: RAT, LIVER, S-9, AROCLOR 1254). Besides, the mutagenic call (Test System: AMES SALMONELLA TYPHIMURIUM, Strain/Indicator: TA100, Metabolic Activation: NONE) is “inactive; negative”; the mutagenic call (Test System: AMES SALMONELLA TYPHIMURIUM, Strain/Indicator: TA100, Metabolic Activation: RAT, GUT-FLORA EXTRACT) was “inactive; negative”; the mutagenic call (Test System: AMES SALMONELLA TYPHIMURIUM, Strain/Indicator: TA100, Metabolic Activation: RAT, LIVER, S-9, AROCLOR 1254) was “inactive; negative”; the mutagenic call (Test System: CHINESE HAMSTER V-79, Strain/Indicator: V-79/6-THIOGUANINE (HGPRT), Metabolic Activation: NONE, Method: SUSPENSION/PLATE) is “inactive; negative”; the mutagenic call (Test System: CHINESE HAMSTER V-79, Strain/Indicator: V-79/6-THIOGUANINE (HGPRT), Metabolic Activation: RAT, LIVER, S-9, AROCLOR 1254, Method: SUSPENSION/PLATE) is “inactive; negative”; the mutagenic call (Test System: Mouse lymphoma, Strain/Indicator: L5178Y (TK+/TK-), Metabolic Activation: None, Method: Microwell) is “inactive; negative”.

For the compound `CC1CCC(C(C)CS)CC1S` (stereo unspecified), the mutagenic call is “inactive; negative” (Test System: AMES SALMONELLA TYPHIMURIUM, Strain/Indicator: TA98, Metabolic Activation: HAMSTER, LIVER, S-9, AROCLOR 1254, Method: PREINCUBATION); “inactive; negative” under setting [1]; “inactive; negative” (Test System: AMES SALMONELLA TYPHIMURIUM, Strain/Indicator: TA98, Metabolic Activation: RAT, LIVER, S-9, AROCLOR 1254, Method: PREINCUBATION); “inactive; negative” (Test System: AMES SALMONELLA TYPHIMURIUM, Strain/Indicator: TA100, Metabolic Activation: HAMSTER, LIVER, S-9, AROCLOR 1254, Method: PREINCUBATION); “inactive; negative” under setting [2]; “inactive; negative” (Test System: AMES SALMONELLA TYPHIMURIUM, Strain/Indicator: TA100, Metabolic Activation: RAT, LIVER, S-9, AROCLOR 1254, Method: PREINCUBATION). For the same compound, the mutagenic call by setting is: (Test System: AMES SALMONELLA TYPHIMURIUM, Strain/Indicator: TA1535, Metabolic Activation: HAMSTER, LIVER, S-9, AROCLOR 1254, Method: PREINCUBATION) “inactive; negative”; under setting [3], “inactive; negative”; (Test System: AMES SALMONELLA TYPHIMURIUM, Strain/Indicator: TA1535, Metabolic Activation: RAT, LIVER, S-9, AROCLOR 1254, Method: PREINCUBATION) “inactive; negative”; (Test System: AMES SALMONELLA TYPHIMURIUM, Strain/Indicator: TA1537, Metabolic Activation: HAMSTER, LIVER, S-9, AROCLOR 1254, Method: PREINCUBATION) “inactive; negative”; under setting [4], “inactive; negative”; (Test System: AMES SALMONELLA TYPHIMURIUM, Strain/Indicator: TA1537, Metabolic Activation: RAT, LIVER, S-9, AROCLOR 1254, Method: PREINCUBATION) “inactive; negative”.

In the case of `C=C(C=O)CCCC`, the mutagenic call runs as follows: under setting [2], “active; positive”; (Test System: AMES SALMONELLA TYPHIMURIUM, Strain/Indicator: TA100, Metabolic Activation: RAT LIVER S-9, AROCLOR 1254, Method: PREINCUBATION) “active; positive”.

On to `BrCC(Br)CBr`, for which the mutagenic call (Test System: AMES SALMONELLA TYPHIMURIUM, Strain/Indicator: TA100, Metabolic Activation: RAT, LIVER, MICROSOMES, PHENOBARBITAL, NADPH COFACTORS, Method: STANDARD PLATE) was “active; positive” and the mutagenic call (Test System: AMES SALMONELLA TYPHIMURIUM, Strain/Indicator: TA100, Metabolic Activation: RAT, LIVER, MICROSOMES, PHENOBARBITAL, Method: STANDARD PLATE) was “inactive; negative”.
